# From paper PMC9027532, “Preclinical Pharmacokinetic Studies of a Novel Diuretic Inhibiting Urea Transporters” (Molecules, 2022)
# Entries after “also recorded” stand apart in the source; their conditions may differ.
# How the values were obtained:
# [1] = system: rats; set-up: method as in PMID 34601246; conditions: orally administered; cited from earlier work
# [2] = Pharmacokinetic study in rats (plasma, LC-MS/MS, NCA); conditions: for concentration at 0.083 h / concentration at 0.167 h / concentration at 0.25 h / concentration at 0.5 h / concentration at 1 h / concentration at 2 h / concentration at 4 h / concentration at 6 h / concentration at 8 h / concentration at 12 h / concentration at 24 h: Mean plasma concentration
# [3] = male, Sprague-Dawley, rat, plasma, iv, 1 mg/kg
# [4] = male, Sprague-Dawley, rat, plasma, po, 25 mg/kg
# [5] = male, Sprague-Dawley, rat, plasma, po, 25 mg/kg, rats, single p.o. 25 mg/kg
# [6] = male, Sprague-Dawley, rat, plasma, po, 50 mg/kg
# [7] = male, Sprague-Dawley, rat, plasma, po, 50 mg/kg, rats, single p.o. 50 mg/kg
# [8] = male, Sprague-Dawley, rat, plasma, po, 100 mg/kg
# [9] = male, Sprague-Dawley, rat, plasma, po, 100 mg/kg, rats, multiple p.o. 100 mg/kg, twice per day for 7 days
# [10] = male, Sprague-Dawley, rat, plasma, po, 100 mg/kg, rats, single p.o. 100 mg/kg
# [11] = male, Sprague-Dawley, rat, plasma, po, 100 mg/kg, rats, multiple p.o. 100 mg/kg
compound,measurement,setting,value
"CC(=O)Nc1ccc(NC(=O)c2ccc(C(C)=O)o2)cc1 [Compound 25a, N-(4-acetamidophenyl)-5-acetylfuran-2-carboxamide]","Na+, K+, and Cl− levels in the blood",[1],without disturbing
same,duration of urea-selective diuresis,[1],8 h
same,urine output vs vehicle control,[1],three times higher urine output than vehicle control
same,AUC(0-inf),[2]; [3],503 ± 124 ng·h/mL
same,AUC(0-t),[2]; [3],501 ± 124 ng·h/mL
same,C0,[2]; [3],1710 ± 398 ng/mL
same,MRT,"[2]; male, Sprague-Dawley, rat, plasma, iv, 1 mg/kg, rats, single i.v. 1 mg/kg",0.6 ± 0.1 h
same,half-life,"[2]; male, Sprague-Dawley, rat, plasma, iv, 1 mg/kg, t1/2, rats, single i.v. 1 mg/kg",0.89 ± 0.52 h
same,AUC(0-inf),[2]; [4],2530 ± 362 ng·h/mL
same,AUC(0-t),[2]; [4],2520 ± 395 ng·h/mL
same,CL/F,[2]; [5],165 mL/min/kg
same,Cmax,[2]; [5],515 ± 107 ng/mL
same,bioavailability,"[2]; male, Sprague-Dawley, rat, plasma, po, 25 mg/kg, F (oral bioavailability), rats, single p.o. 25 mg/kg",20.1 ± 0.8%
same,MRT,[2]; [5],5.2 ± 0.4 h
same,concentration at 0.083 h,[2]; [5],282 ± 62.3 ng/mL
same,concentration at 0.167 h,[2]; [5],431 ± 116 ng/mL
same,concentration at 0.25 h,[2]; [5],515 ± 122 ng/mL
same,concentration at 0.5 h,[2]; [5],167 ± 33.5 ng/mL
same,concentration at 1 h,[2]; [5],245 ± 92.5 ng/mL
same,concentration at 2 h,[2]; [5],206 ± 83.7 ng/mL
same,concentration at 4 h,[2]; [5],372 ± 74.3 ng/mL
same,concentration at 6 h,[2]; [5],230 ± 49.7 ng/mL
same,concentration at 8 h,[2]; [5],102 ± 7.7 ng/mL
same,concentration at 12 h,[2]; [5],36.8 ± 2.7 ng/mL
same,concentration at 24 h,[2]; [5],2.1 ± 1.3 ng/mL
same,half-life,"[2]; male, Sprague-Dawley, rat, plasma, po, 25 mg/kg, t1/2, rats, single p.o. 25 mg/kg",2.86 ± 0.29 h
same,Tmax,"[2]; male, Sprague-Dawley, rat, plasma, po, 25 mg/kg, tmax, rats, single p.o. 25 mg/kg",0.25 h
same,AUC(0-inf),[2]; [6],4740 ± 854 ng·h/mL
same,AUC(0-t),[2]; [6],4730 ± 854 ng·h/mL
same,CL/F,[2]; [7],175 mL/min/kg
same,Cmax,[2]; [7],693 ± 260 ng/mL
same,bioavailability,"[2]; male, Sprague-Dawley, rat, plasma, po, 50 mg/kg, F (oral bioavailability), rats, single p.o. 50 mg/kg",18.9 ± 1.7%
same,concentration at 0.083 h,[2]; [7],236 ± 93.5 ng/mL
same,concentration at 0.167 h,[2]; [7],380 ± 173 ng/mL
same,concentration at 0.25 h,[2]; [7],496 ± 211 ng/mL
same,concentration at 0.5 h,[2]; [7],693 ± 272 ng/mL
same,concentration at 1 h,[2]; [7],429 ± 149 ng/mL
same,concentration at 2 h,[2]; [7],454 ± 97.6 ng/mL
same,concentration at 4 h,[2]; [7],553 ± 97.8 ng/mL
same,concentration at 6 h,[2]; [7],383 ± 166 ng/mL
same,concentration at 8 h,[2]; [7],271 ± 75.1 ng/mL
same,concentration at 12 h,[2]; [7],78.3 ± 36.1 ng/mL
same,concentration at 24 h,[2]; [7],3.6 ± 1.1 ng/mL
same,half-life,"[2]; male, Sprague-Dawley, rat, plasma, po, 50 mg/kg, t1/2, rats, single p.o. 50 mg/kg",2.63 ± 0.2 h
same,Tmax,"[2]; male, Sprague-Dawley, rat, plasma, po, 50 mg/kg, tmax, rats, single p.o. 50 mg/kg",0.5 h
same,AUC(0-inf),[2]; [8],12100 ng·h/mL
same,AUC(0-t),[2]; [8],11800 ng·h/mL
same,CL/F,[2]; [9],137 mL/min/kg
same,CL/F,[2]; [10],240 mL/min/kg
same,Cmax,[2]; [9],1710 ± 185 ng/mL
same,Cmax,[2]; [10],1320 ± 228 ng/mL
same,bioavailability,"[2]; male, Sprague-Dawley, rat, plasma, po, 100 mg/kg, F (oral bioavailability), rats, multiple p.o. 100 mg/kg, twice per day for 7 days",23.5 ± 2.3%
same,bioavailability,"[2]; male, Sprague-Dawley, rat, plasma, po, 100 mg/kg, F (oral bioavailability), rats, single p.o. 100 mg/kg",13.8 ± 0.8%
same,MRT,[2]; [9],6.5 ± 0.6 h
same,MRT,[2]; [10],5.3 ± 0.3 h
same,concentration at 0.083 h,[2]; [11],681 ± 97 ng/mL
same,concentration at 0.083 h,[2]; [10],1080 ± 287 ng/mL
same,concentration at 0.167 h,[2]; [11],936 ± 102 ng/mL
same,concentration at 0.167 h,[2]; [10],1320 ± 235 ng/mL
same,concentration at 0.25 h,[2]; [11],1090 ± 192 ng/mL
same,concentration at 0.25 h,[2]; [10],1210 ± 196 ng/mL
same,concentration at 0.5 h,[2]; [11],1260 ± 168 ng/mL
same,concentration at 0.5 h,[2]; [10],1030 ± 124 ng/mL
same,concentration at 1 h,[2]; [11],1410 ± 283 ng/mL
same,concentration at 1 h,[2]; [10],734 ± 134 ng/mL
same,concentration at 2 h,[2]; [11],1710 ± 185 ng/mL
same,concentration at 2 h,[2]; [10],687 ± 146 ng/mL
same,concentration at 4 h,[2]; [11],1080 ± 110 ng/mL
same,concentration at 4 h,[2]; [10],1130 ± 245 ng/mL
same,concentration at 6 h,[2]; [11],717 ± 196 ng/mL
same,concentration at 6 h,[2]; [10],835 ± 178 ng/mL
same,concentration at 8 h,[2]; [11],494 ± 111 ng/mL
same,concentration at 8 h,[2]; [10],596 ± 126 ng/mL
same,concentration at 12 h,[2]; [11],245 ± 73.6 ng/mL
same,concentration at 12 h,[2]; [10],173 ± 36.7 ng/mL
same,concentration at 24 h,[2]; [11],28.1 ± 85.9 ng/mL
same,concentration at 24 h,[2]; [10],10.9 ± 6.6 ng/mL
same,half-life,"[2]; male, Sprague-Dawley, rat, plasma, po, 100 mg/kg, half-life, rats, single oral doses 25, 50, 100 mg/kg",2.6 to 3 h
same,half-life,"[2]; male, Sprague-Dawley, rat, plasma, po, 100 mg/kg, t1/2, rats, multiple p.o. 100 mg/kg, twice per day for 7 days",5.03 ± 0.82 h
same,Tmax at 7 days,"[2]; male, Sprague-Dawley, rat, plasma, po, 100 mg/kg, tmax, rats, multiple p.o. 100 mg/kg, twice per day for 7 days",~2 h
same,Tmax,"[2]; male, Sprague-Dawley, rat, plasma, po, 100 mg/kg, tmax, rats, single p.o. 100 mg/kg",~0.17 h
same,bioavailability,"[2]; male, Sprague-Dawley, rat, plasma, po, oral bioavailability, SD rats, oral administration, overall",≤ 20%
same,time of second plasma peak concentration,"[2]; rats, after intravenous injection",Approximately 2 h
same,time to reach maximum plasma concentration (Cmax),"[2]; rats, after oral administration",≤ 0.5 h
same,time of second plasma peak concentration,"[2]; rats, after oral dosing",~4 h
same,V/F,"[2]; rats, multiple p.o. 100 mg/kg, twice per day for 7 days",59.8 ± 11.8 L/kg
same,bioavailability of 25a relative to lead compound 1H,"[2]; rats, oral",approximately fourfold; also recorded: approximately four times higher
same,V (V/F row),"[2]; rats, single i.v. 1 mg/kg",2.6 ± 1.4 L/kg
same,V/F,"[2]; rats, single p.o. 25 mg/kg",40.9 ± 7.4 L/kg
same,V/F,"[2]; rats, single p.o. 50 mg/kg",40.1 ± 10.8 L/kg
same,AUC0–∞,"[2]; rats, single p.o. 100 mg/kg",6957.4 ± 345.1 ng·h/mL
same,V/F,"[2]; rats, single p.o. 100 mg/kg",63.0 ± 17.6 L/kg
same,t1/2,"[2]; rats, single p.o. 100 mg/kg",3.04 ± 0.70 h
same,clearance,"[2]; read-out: CL (CL/F row), rats, single i.v. 1 mg/kg",35 mL/min/kg
